Experimental data reported in ChEMBL document CHEMBL5724914, “Linking interpersonal differences in gut microbiota composition and drug biotransformation activity” (2024).

Key:
[1] = (§1) The drug is tested on Z-009 corresponding to pig gut metagenome with ENA study accession number: PRJEB37062 and ENA sample accession number: ERS12561809 for biotransformation under anaerobic condition. The drug concentrations were measured over 9 timepoints collected between 0 and 24 hours of incubation by liquid-chromatography-coupled mass spectrometry (LC–MS); conditions: 2 µM
[2] = as §1, with “WLS-170” for “Z-009”, “human” for “pig”, “ERS12561762” for “ERS12561809”; conditions: 2 µM
[3] = human gut metagenome, 24 h, 2 µM
[4] = human gut metagenome, 24 h, 2 µM; remark: listed apart in the source
[5] = human gut metagenome, 24 h, 2 µM; remark: listed apart in the source
[6] = human gut metagenome, 24 h, 2 µM; remark: listed apart in the source
[7] = human gut metagenome, 24 h, 2 µM; remark: listed apart in the source
[8] = human gut metagenome, 24 h, 2 µM; remark: listed apart in the source
[9] = as §1, with “Z-006” for “Z-009”, “mouse” for “pig”, “ERS12561806” for “ERS12561809”; conditions: 2 µM
[10] = as §1, with “Z-024” for “Z-009”, “ERS12561823” for “ERS12561809”; conditions: 2 µM
[11] = as §1, with “Z-022” for “Z-009”, “mouse” for “pig”, “ERS12561821” for “ERS12561809”; conditions: 2 µM
[12] = as §1, with “WLS-073” for “Z-009”, “human” for “pig”, “ERS12561749” for “ERS12561809”; conditions: 2 µM
[13] = human gut metagenome, 24 h, 2 µM; remark: listed apart in the source
[14] = as §1, with “Z-027” for “Z-009”, “to” for “to pig gut”, “ERS12561826” for “ERS12561809”; conditions: 2 µM
[15] = as §1, with “WLS-007” for “Z-009”, “human” for “pig”, “ERS12561742” for “ERS12561809”; conditions: 2 µM
[16] = human gut metagenome, 24 h, 2 µM; remark: listed apart in the source
[17] = human gut metagenome, 24 h, 2 µM; remark: listed apart in the source
[18] = as §1, with “Z-018” for “Z-009”, “ERS12561817” for “ERS12561809”; conditions: 2 µM
[19] = as §1, with “WLS-006” for “Z-009”, “human” for “pig”, “ERS12561741” for “ERS12561809”; conditions: 2 µM
[20] = as §1, with “Z-008” for “Z-009”, “to” for “to pig gut”, “ERS12561808” for “ERS12561809”; conditions: 2 µM
Note: call rule not given here.

Structure (SMILES) | Bacterial Biotransformation [1] | Bacterial Biotransformation [2] | Bacterial Biotransformation [3] | Bacterial Biotransformation [4] | Bacterial Biotransformation [5] | Bacterial Biotransformation [6] | Bacterial Biotransformation [7] | Bacterial Biotransformation [8] | Bacterial Biotransformation [9] | Bacterial Biotransformation [10] | Bacterial Biotransformation [11] | Bacterial Biotransformation [12] | Bacterial Biotransformation [13] | Bacterial Biotransformation [14] | Bacterial Biotransformation [15] | Bacterial Biotransformation [16] | Bacterial Biotransformation [17] | Bacterial Biotransformation [18] | Bacterial Biotransformation [19] | Bacterial Biotransformation [20]
CC(C)NCC(O)COc1ccc(CC(N)=O)cc1 (stereo not given) [ATENOLOL] | Compound NOT metabolized | Compound metabolized | Compound metabolized | Compound NOT metabolized | Compound NOT metabolized | Compound NOT metabolized | Compound NOT metabolized | Compound NOT metabolized | Compound NOT metabolized | Compound NOT metabolized | Compound NOT metabolized | Compound NOT metabolized | Compound NOT metabolized | Compound NOT metabolized | Compound NOT metabolized | Compound metabolized | Compound NOT metabolized | Compound NOT metabolized | Compound NOT metabolized | Compound NOT metabolized
CN(C)CCC=C1c2ccccc2COc2ccccc21 [DOXEPIN] | Compound metabolized | Compound metabolized | Compound metabolized | Compound metabolized | Compound metabolized | Compound NOT metabolized | Compound NOT metabolized | Compound NOT metabolized | Compound NOT metabolized | Compound metabolized | Compound NOT metabolized | Compound metabolized | Compound metabolized | Compound NOT metabolized | Compound metabolized | Compound NOT metabolized | Compound NOT metabolized | Compound NOT metabolized | Compound NOT metabolized | Compound NOT metabolized
CC(C)c1c(CN(C)C(C)Cc2ccccc2)n(C)n(-c2ccccc2)c1=O (stereo not given) [FAMPROFAZONE] | Compound metabolized | Compound metabolized | Compound metabolized | Compound metabolized | Compound metabolized | Compound metabolized | Compound metabolized | Compound metabolized | Compound metabolized | Compound metabolized | Compound metabolized | Compound metabolized | Compound metabolized | Compound metabolized | Compound metabolized | Compound metabolized | Compound metabolized | Compound NOT metabolized | Compound metabolized | Compound metabolized
Nc1nc(N)nc(-c2cc(Cl)ccc2Cl)n1.O=C(O)/C=C\C(=O)O [IRSOGLADINE MALEATE] | Compound NOT metabolized | Compound NOT metabolized | Compound metabolized | Compound NOT metabolized | Compound NOT metabolized | Compound NOT metabolized | Compound NOT metabolized | Compound NOT metabolized | Compound NOT metabolized | Compound NOT metabolized | Compound NOT metabolized | Compound NOT metabolized | Compound NOT metabolized | Compound NOT metabolized | Compound NOT metabolized | Compound NOT metabolized | Compound NOT metabolized | Compound NOT metabolized | Compound NOT metabolized | Compound NOT metabolized

Other lines, results leading:

Bacterial Biotransformation [1] | Bacterial Biotransformation [2] | Bacterial Biotransformation [3] | Bacterial Biotransformation [4] | Bacterial Biotransformation [5] | Bacterial Biotransformation [6] | Bacterial Biotransformation [7] | Bacterial Biotransformation [8] | Bacterial Biotransformation [9] | Bacterial Biotransformation [10] | Bacterial Biotransformation [11] | Bacterial Biotransformation [12] | Bacterial Biotransformation [13] | Bacterial Biotransformation [14] | Bacterial Biotransformation [15] | Bacterial Biotransformation [16] | Bacterial Biotransformation [17] | Bacterial Biotransformation [18] | Bacterial Biotransformation [19] | Bacterial Biotransformation [20] | Structure (SMILES)
Compound NOT metabolized | Compound metabolized | Compound metabolized | Compound NOT metabolized | Compound metabolized | Compound NOT metabolized | Compound metabolized | Compound NOT metabolized | Compound NOT metabolized | Compound NOT metabolized | Compound NOT metabolized | Compound NOT metabolized | Compound NOT metabolized | Compound NOT metabolized | Compound NOT metabolized | Compound NOT metabolized | Compound NOT metabolized | Compound NOT metabolized | Compound NOT metabolized | Compound NOT metabolized | CCN1CCCC1CNC(=O)c1cc(S(=O)(=O)CC)c(N)cc1OC (stereo not given) [AMISULPRIDE]
Compound metabolized | Compound metabolized | Compound metabolized | Compound metabolized | Compound metabolized | Compound metabolized | Compound metabolized | Compound metabolized | Compound metabolized | Compound NOT metabolized | Compound NOT metabolized | Compound metabolized | Compound metabolized | Compound NOT metabolized | Compound metabolized | Compound metabolized | Compound metabolized | Compound metabolized | Compound metabolized | Compound metabolized | CC(=O)OCC(=O)[C@@]1(OC(C)=O)[C@@H](C)C[C@H]2[C@@H]3C[C@H](F)C4=CC(=O)C=C[C@]4(C)[C@@]3(F)[C@@H](O)C[C@@]21C [DIFLORASONE DIACETATE]
Compound metabolized | Compound metabolized | Compound metabolized | Compound NOT metabolized | Compound metabolized | Compound NOT metabolized | Compound metabolized | Compound metabolized | Compound metabolized | Compound NOT metabolized | Compound NOT metabolized | Compound metabolized | Compound NOT metabolized | Compound NOT metabolized | Compound metabolized | Compound metabolized | Compound NOT metabolized | Compound metabolized | Compound metabolized | Compound metabolized | C[C@]12CCC(=O)C=C1[C@@H]1C[C@@H]1[C@H]1[C@@H]3[C@@H]4C[C@@H]4[C@@]4(CCC(=O)O4)[C@@]3(C)CC[C@@H]12 [DROSPIRENONE]
Compound metabolized | Compound metabolized | Compound metabolized | Compound NOT metabolized | Compound metabolized | Compound NOT metabolized | Compound metabolized | Compound NOT metabolized | Compound NOT metabolized | Compound NOT metabolized | Compound NOT metabolized | Compound metabolized | Compound metabolized | Compound NOT metabolized | Compound metabolized | Compound NOT metabolized | Compound NOT metabolized | Compound NOT metabolized | Compound metabolized | Compound NOT metabolized | CN1CCC(=C2c3ccccc3CC(=O)c3sccc32)CC1.O=C(O)/C=C/C(=O)O [KETOTIFEN FUMARATE]
